Test results: patent publication US4105785A, “Anti-depressive 2-methyl-4-[(3'-dimethylamino)propylidine]-9,10-dihydrobenzo [4,5]cyclohepta[1,2b]furan compounds” (priority 1976, dated 1978)

How the values were obtained:
[1] = tested on: stereotypies induced by amphetamine; assay: Potentialization of stereotypies induced by amphetamine in the rat; format: in vivo; settings: D-amphetamine 4 mg/kg IP
Procedure: (4) Potentialization of stereotypies induced by amphetamine in the rat.
The administration of D-amphetamine to the rat (4 mg/kg IP) results in stereotyped behaviour which can be potentialized or antogonized by various products.
The values given in table I show the percentage of potentialization. [Lapin I. P. and Schelkunov E. L. (1963) Second International Pharmacological Meeting 1, 205 Pergamon Press].

[2] = tested on: reserpine-induced hypothermia; assay: Antagonism to reserpine-induced hypothermia; format: in vivo; settings: mouse; for HYPOTHERMIA (Reserpine), maximal rise in temperature: reserpine 1 mg/kg IV
Procedure: (2) Antagonism to reserpine-induced hypothermia Administration of reserpine to the mouse (1 mg/kg IV) results in hypothermia which may be antagonized by certain anti-depressants. The values given in table I correspond, for the doses given, to the maximal rise in temperature. [Boissier et al., Therapie 1966, XXI, 109-117]

[3] = tested on: heat stimulus (hot plate); assay: Analgesic activity, hot plate method; format: in vivo; settings: mouse; for ED50: PO, 50% of animals exposed to heat stimulus longer than 5 seconds, read-out: ANALGESIA ED 50
Procedure: (7) Analgesic activity This was assessed on the mouse by the hot plate method. […] [Eddy N. B. and Leimbach D. J., Pharmacol. Exp. Ther., 107, 385-393 (1953)]

[4] = tested on: spontaneous motility; assay: Spontaneous motility in the mouse; format: in vivo; settings: 1 hour after administration, 10 minutes
Procedure: (6) Spontaneous motility in the mouse One hour after the administration of the product to be studied, the animals are placed by groups of two in a circular corridor swept by beams of infrared light making it possible to count their movements from one place to another. The number of movements from one place to another is counted for 10 minutes and compared with the score obtained by a control group.

[5] = tested on: symptoms of trembling induced by oxotremorine; assay: Antioxotremoric action in the mouse; format: in vivo; settings: 100 mg/kg PO, oxotremorine 2 mg/kg IP
[6] = acute toxicity by the oral way in the mouse; settings: in vivo; for mortality: 600 mg/kg PO, read-out: acute toxicity, deaths; for LD50: PO
Procedure: (1) acute toxicity by the oral way in the mouse
This was evaluated in the mouse by the method of Behrens and Karber [Arch. Exp. Path. Pharm. 177, 379 (1935)]

[7] = tested on: catalepsy induced by prochlorperazine; assay: antagonism to catalepsy induced by prochlorperazine in the rat; format: in vivo
From the text: (3) antagonism to catalepsy induced by prochlorperazine in the rat. Injection of prochlorperazine in the rat induces a cataleptic state which is more or less inhibited by antidepressants. The values given in table I show percentages of inhibition. [Boissier J. R. and Simon P., Therapie (1963), 18, 1257-77]

Structure (SMILES)	STEREOTYPIES (Amphetamine), percentage of potentialization ([1]; 5 mg/kg IP)	HYPOTHERMIA (Reserpine), maximal rise in temperature ([2]; 25 mg/kg PO)	ED50 [3]	SPONTANEOUS MOTILITY, percentage of decrease in number of movements ([4]; 100 mg/kg PO)	ANTI-OXOTREMORIC ACTION, percentage of inhibition of trembling symptoms [5]	mortality [6]	CATALEPSY (Prochlorperazine), percentage of inhibition ([7]; 20 mg/kg IP)	STEREOTYPIES (Amphetamine), percentage of potentialization ([1]; 20 mg/kg PO)	HYPOTHERMIA (Reserpine), maximal rise in temperature ([2]; 50 mg/kg PO)	SPONTANEOUS MOTILITY, percentage of decrease in number of movements ([4]; 80 mg/kg PO)	LD50 [6]	HYPOTHERMIA (Reserpine), maximal rise in temperature ([2]; 12.5 mg/kg PO)	action on reserpine-induced hypothermy (in words) [2]	ANALGESIA (result in words) [3]	CATALEPSY (Prochlorperazine), percentage of inhibition ([7]; 40 mg/kg IP)
Cc1ccc2c(c1)C(=CCCN(C)C)c1cc(C)oc1CC2 [compound no. 2, dimethyl-2,6 [(dimethylamino-3')]-propylidene-4 dihydro-9,10 benzo [4,5] cyclohepta [1,2-b] furan]	+141%	+0.6 °C	47 mg/kg	84.4%	-30%	10%	-44.4%								
CN(C)CCC=C1c2ccccc2CCc2ccccc21 [AMITRIPTYLINE, reference compound]			16 mg/kg		-100%		-33,3%	+65%	+2.5 °C	80%	250 mg/kg				
Cc1ccc2c(c1)CCc1oc(C)cc1C2=CCCN(C)C [compound no. 1, dimethyl-2,7 [(dimethylamino-3')propylidene]-4 dihydro-9,10 benzo-[4,5] cyclohepta [1,2-b] furan]	+105%		48 mg/kg	95.3%	-35%	10%	-26.1%					+1 °C			
Cc1cc2c(o1)CCc1ccccc1C2=CCCN(C)C [compound no. 3, methyl-2 [(dimethylamino-3')-propylidene]-4 dihydro-9,10 benzo-[4,5] cyclohepta [1,2-b] furan]	+9,2%			84%	-75%				+3 °C		300 mg/kg		significant action	non specific	-33.3%
